Assay results published in the NIST ThermoML archive (doi:10.1016/j.tca.2013.09.032).

Conditions: 101.33 kPa, Crystal, Vacuum adiabatic calorimetry

Cc1cc2nc3c(=O)[nH]c(=O)nc-3n(C[C@H](O)[C@H](O)[C@H](O)CO)c2cc1C [riboflavin]
Conditions | molar entropy [J/K/mol]
1 K | 0.0261
2 K | 0.105
3 K | 0.235
4 K | 0.418
5 K | 0.653
6 K | 0.941
7 K | 1.28
8 K | 1.66
9 K | 2.1
10 K | 2.58
15 K | 5.898
20 K | 10.48
25 K | 15.97
30 K | 22.23
35 K | 29.06
40 K | 36.3
45 K | 43.84
50 K | 51.59
60 K | 67.55
70 K | 83.87
80 K | 100.3
90 K | 116.8
100 K | 133.4
110 K | 149.9
120 K | 166.2
130 K | 182.4
140 K | 198.4
150 K | 214.3
160 K | 230.1
170 K | 245.7
180 K | 261.3
190 K | 276.8
200 K | 292.2
210 K | 307.5
220 K | 322.7
230 K | 337.9
240 K | 353
250 K | 368
260 K | 383
270 K | 397.9
273.15 K | 402.6
280 K | 412.8
290 K | 427.7
298.15 K | 439.8
310 K | 457.3
320 K | 472.1
322 K | 475
